The data set can be described thus: Pharmacokinetic study, plasma concentrations by LC-MS/MS. More on the design: species or system beagle dogs. To be noted: dog, in vivo. As to the method:
Each overnight-fasted dog in group 1 received an intravenous bolus dose administration (1 mg/kg) of the compound of Formula (I). Following i.v. dose administration, blood samples (˜3 mL) were collected via jugular venipuncture, or other suitable site, into EDTA tubes and placed on wet ice, at predose (0.0), 0.25, 0.5, 1, 2, 4, 8, and 24 hours post dose. Each overnight-fasted dog in groups 2-5 received a single oral dose (200 mg) of compound of Formula (I). Following oral dose administration, blood samples (˜3 mL) were collected via jugular venipuncture, or other suitable site, into EDTA tubes and placed on wet ice, at predose (0.0), 0.25, 0.5, 1, 2, 4, 8, 24, 36, and 48 hours post dose. Plasma was harvested by centrifugation, each plasma sample are split into approximately equal parts before being frozen at −70° C. Food was returned after the 4 hour blood sample is collected. All samples were processed within two hours of collection. All samples are labeled with the study number, test article, dose, time interval, species, and animal identification number.
One set of plasma samples were analyzed for unchanged compound of Formula (I) concentrations using a liquid chromatographic-triple quadrupole mass spectrometric (LC-MS/MS) assay procedure. Any remaining plasma was retained for possible metabolite profiling. […]

As to `Cc1cnc(NCC(F)(F)c2ccccc2)c(=O)n1CC(=O)NCCONC(=N)N` [Compound X], the colonic absorption entry is “very poor colonic absorption”.

These data come from patent US20070269512A1, “GASTRORETENTIVE SUSTAINED RELEASE FORMULATIONS” (priority 2006, published 2007).
